The values that follow come from patent publication US10786474B2, “Pharmaceutical suspensions containing drug particles, devices for their administration, and methods of their use” (SynAgile Corporation, priority 2015, dated 2020).

The conditions of data set [1]: extended release tablets; various studies; cited from earlier work.
The conditions of data set [2]: in vivo; cited from earlier work.
The nature of another data set: Solubility of LD. The conditions noted are these: citrate buffered solution of about pH 4.5, 25° C. It is filed as physicochemical. How it is done:
LD is poorly soluble in most non-toxic solvents, including water and alcohols. […] LD is even less soluble in alcohols. To deliver a typical daily dose of 1,000 mg approximately 150 mL of saturated LD aqueous solution would be required, which is incompatible with the volume requirements for a drug delivery device placed in the mouth.

The conditions of data set [3]: assumed for dissolution of orally delivered solid LD in saliva; cited from earlier work.

In brackets after ≈: the same amount, converted by molar mass. Several values for one entry are separate records, joined by “and”; a condition that tells them apart may be missing. Equal values may be shown once. Read-outs that look alike come from different tables or passages of the source.

In the case of `NC(=O)N1c2ccccc2C=Cc2ccccc21` [Carbamazepine], the “Fluctuation Index” value in data set [1] was 0.31 and 0.26 and 0.47 and 0.49.

As to `CCN(CC)C(=O)/C(C#N)=C/c1cc(O)c(O)c([N+](=O)[O-])c1` [Entacapone], in data set [2], the “crossing of the blood-brain barrier” value is given as “does not cross the blood-brain barrier”, the physiological half-life entry is “less than 1 hour” and the plasma half-life was 0.4 to 0.7 h.

Turning to `N[C@@H](Cc1ccc(O)c(O)c1)C(=O)O` [LD, levodopa], the solubility in the data set “Solubility of LD” (aqueous buffer, read-out: solubility) was around 34 mM (≈ 6700 µg/mL); in the data set “Solubility of LD”, “about 0.68 g/100 mL”; in data set [3], “about 50 mg/mL”.

Take `CC[C@@H](C(N)=O)N1CCCC1=O` [Levetiracetam]: the “Fluctuation Index” value in data set [1] is 1.19 and 1.27.

Turning to `Cc1ccc(C(=O)c2cc(O)c(O)c([N+](=O)[O-])c2)cc1` [Tolcapone], in data set [2], the “crossing of the blood-brain barrier” value is “crosses the barrier”, the hepatotoxicity entry was “limited by its hepatotoxicity” and the plasma half-life was 2 to 3 h.
